From ChEMBL document CHEMBL1201862, “PubChem BioAssay data set” (2004)
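1) Cells in 96-well plates. 2) Compound, 48 h, 5 concentrations. 3) Linear interpolation between surrounding doses. 4) Unreached endpoint = highest concentration. At the GI50, growth is halved.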 The source made the active and inactive calls. Rule as the data show it: active = GI50 up to about 1.1 µM and inactive = higher.

What was measured:
Assay in all cases: growth of human tumour cells (NCI), 48 h
[1] = system: KM-20L2
[2] = system: LXFL 529
[3] = system: M19-MEL
[4] = system: MDA-MB-231
[5] = system: BT-549
[6] = system: PC-3
[7] = system: MDA-N
[8] = system: T47D
[9] = system: RXF 631

SMILES | GI50 [1] | GI50 [2] | GI50 [3] | GI50 [4] | GI50 [5] | GI50 [6] | GI50 [7] | GI50 [8] | GI50 [9]
COC1O[C@H]2CCN(C(=O)OCc3ccccc3)[C@H]2[C@H]1OCc1ccccc1 (some centres undefined) | 69.2 µM (inactive) | 40.2 µM (inactive) | 53 µM (inactive) |  |  |  |  |  | 
S=c1c2nc[nH]c2ncn1CCSC1=NC=NC2=NC=NC21 (centres undefined) | > 100 µM (inactive) |  | > 100 µM (inactive) | > 100 µM (inactive) | > 100 µM (inactive) | > 100 µM (inactive) | 61.7 µM (inactive) | > 94.2 µM (inactive) | 
c1ccc2c(c1)nc1n2CSC1 | > 100 µM (inactive) | > 100 µM (inactive) | > 100 µM (inactive) |  |  |  |  |  | > 100 µM (inactive)
O=C(CC1(O)C(=O)Nc2c(Cl)cc(Cl)cc21)c1ccco1 (centres undefined) | 48.3 µM (inactive) | 37.8 µM (inactive) |  |  |  |  |  |  | 
COc1cc(C2C(C(=O)Nc3ccccc3C)=C(C)NC(C)=C2C(=O)Nc2ccccc2C)ccc1O | > 100 µM (inactive) | > 100 µM (inactive) | > 100 µM (inactive) |  |  |  |  |  | > 100 µM (inactive)
C/C(=N/NC(=O)c1ccccc1S(N)(=O)=O)C(CN1CCCCC1)C(C1=C(O)C2C=CC=CC2OC1=O)c1ccccc1 (centres undefined) | > 100 µM (inactive) | 96.6 µM (inactive) | 47.6 µM (inactive) |  |  |  |  |  | > 100 µM (inactive)
CC1(O)C=CC(=O)C=C1 | 32 µM (inactive) | 13.3 µM (inactive) | 22.6 µM (inactive) |  |  |  |  |  | 
COc1ccc(/C(Cl)=C(\C=O)c2ccc(OC)c(OC)c2)cc1 | > 100 µM (inactive) | 30.4 µM (inactive) | > 100 µM (inactive) |  |  |  |  |  | 54.3 µM (inactive)
CC1=NN(C(=O)c2ccccc2O)C(=O)/C1=C/c1ccc(O)cc1 | 36.5 µM (inactive) | 0.141 µM (active) |  | 58.9 µM (inactive) | 0.279 µM (active) | 0.368 µM (active) | 0.316 µM (active) | 4.03 µM (inactive) | 
COc1ccc(/C=C(\C2=NC(=O)CS2)c2nc3ccccc3[nH]2)cc1 | 49 µM (inactive) | 60.7 µM (inactive) | 43.5 µM (inactive) |  |  |  |  |  | 
N#C/C(=C/c1ccco1)C(=O)c1ccccc1 |  | > 100 µM (inactive) | > 100 µM (inactive) |  |  |  |  |  | > 100 µM (inactive)
COC(=O)C1=C(O)c2cc3c(cc2[C@H](c2cc(OC)c(OC)c(OC)c2)C1C(=O)OC)OCO3 (some centres undefined) | > 100 µM (inactive) | 56.5 µM (inactive) | 39.5 µM (inactive) |  |  |  |  |  | > 100 µM (inactive)
O=C1NC2CCCCCC2C12CCCCC2 (centres undefined) | > 100 µM (inactive) | > 100 µM (inactive) | > 100 µM (inactive) |  |  |  |  |  | > 100 µM (inactive)
CCCCCCCCCCCC(=O)C1=C(O)CCC(O)C1=O (centres undefined) | 11.7 µM (inactive) | 16.6 µM (inactive) | 19.5 µM (inactive) |  |  |  |  |  | 
O=C(NNc1ccc([N+](=O)[O-])cc1)C1OC(CO)C(O)C1O (centres undefined) | > 100 µM (inactive) | 38.3 µM (inactive) | > 100 µM (inactive) |  |  |  |  |  | 
CCOC(=O)C1CCn2c(nc3c(=O)n(C)c(=O)n(C)c32)S1 (centres undefined) | > 100 µM (inactive) | > 100 µM (inactive) |  |  |  |  |  |  | > 100 µM (inactive)
c1ccc(N/N=C2\NN=C(c3ccccc3)CS2)cc1 | 6.46 µM (inactive) |  |  |  |  |  |  |  | 5.52 µM (inactive)
COC(=O)N1C=Cc2c(c(C)c3c([nH]c4ccccc43)c2C)C1C (centres undefined) | 12.2 µM (inactive) | 22.2 µM (inactive) | 20.8 µM (inactive) |  |  |  |  |  | 16.4 µM (inactive)
CC1C(/C=C/c2ccoc2)ON2CCCC12 (centres undefined) | > 100 µM (inactive) | > 100 µM (inactive) | > 100 µM (inactive) |  |  |  |  |  | 
O=C(CC1=NCCN1)c1ccccc1 | > 750 µM (inactive) |  | > 750 µM (inactive) |  |  |  |  |  | 
CS(=O)(=O)N/N=C/CN1C(=O)c2ccccc2C1=O | > 100 µM (inactive) | > 100 µM (inactive) | > 100 µM (inactive) |  |  |  |  |  | 
COc1cc2c(cc1OC)-c1c3c(cc4c1[C@@H](C2)N(C)CC4)OCO3 | 3.44 µM (inactive) |  | 10.4 µM (inactive) |  |  |  |  |  | 
COc1ccc(Br)c(CN2CCc3ccccc32)c1OS(=O)(=O)c1ccc(C)cc1 |  |  | 4.03 µM (inactive) |  |  |  |  |  | 34.4 µM (inactive)
Cc1ccc(S(=O)(=O)N/N=C(/c2nc3ccc([N+](=O)[O-])cc3nc2O)C(O)c2ccc(C(O)/C(=N\NS(=O)(=O)c3ccc(C)cc3)c3nc4ccc([N+](=O)[O-])cc4nc3O)cc2)cc1 (centres undefined) | 55.8 µM (inactive) | 21.4 µM (inactive) |  |  |  |  |  |  | 56.5 µM (inactive)
COc1cc(/C=C/C(=O)O)ccc1C(=O)OCc1ccccc1 | > 100 µM (inactive) |  | > 100 µM (inactive) |  |  |  |  |  | 
CN(C)CCNC(=O)c1cccc2cc3cc(O)ccc3nc12 | 2.44 µM (inactive) |  | 1.2 µM (inactive) |  |  |  |  |  | 
CN(C)CCNC(=O)c1cccc2c1nc(-c1cccnc1)c1ccccc12 |  |  | 5 µM (inactive) |  |  |  |  |  | 1.96 µM (inactive)
COC(=O)c1s/c(=N\C(=S)N(C)C)n(-c2ccccc2)c1C(=O)OC | > 100 µM (inactive) |  | > 100 µM (inactive) |  |  |  |  |  | 
COC(=O)C#CCC1CCCC1C1SCCS1 (centres undefined) | 59.6 µM (inactive) | 70.1 µM (inactive) | > 100 µM (inactive) |  |  |  |  |  | > 100 µM (inactive)
